# Paper PMC12811658, “Design, Synthesis, and Structural Evolution of Pseudo‐Natural Product IDO1 Inhibitors and Degraders” (Angewandte Chemie (International Ed. in English), 2025)
# Columns and labels:
# [1] = molecular target: IDO1 protein levels in BxPC3 cells (Homo sapiens, UniProt P14902); experiment: IDO1 immunoblotting (degradation); format: cell-based; parameters: endogenous in cells; host or cells: BxPC3 (DSMZ), IFN-γ stimulated; conditions: for Max. degradation (%): 24 h incubation, mean ± SD; for Dmax at 0.1 µM: BXPC-3, @100 nM
# IDO1 protein levels in BxPC3 cells, sequence (P14902 whole entry): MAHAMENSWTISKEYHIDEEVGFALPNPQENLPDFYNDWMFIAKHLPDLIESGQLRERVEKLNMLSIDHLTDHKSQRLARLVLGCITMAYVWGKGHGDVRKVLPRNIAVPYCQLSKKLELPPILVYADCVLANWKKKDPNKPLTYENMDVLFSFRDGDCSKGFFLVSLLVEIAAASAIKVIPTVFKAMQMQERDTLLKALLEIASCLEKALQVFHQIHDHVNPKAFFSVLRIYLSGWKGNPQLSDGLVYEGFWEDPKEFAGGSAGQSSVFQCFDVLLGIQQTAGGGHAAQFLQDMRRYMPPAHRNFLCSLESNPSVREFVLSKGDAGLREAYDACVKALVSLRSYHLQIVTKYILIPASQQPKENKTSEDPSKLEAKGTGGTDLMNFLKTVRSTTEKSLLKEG
# [2] = test system: Kyn levels in BxPC3 cells (kynurenine generated by IDO1); experiment: Cellular Kyn assay (automated Kyn screening assay); format: cell-based; conditions: for IC50: Homo sapiens, BXPC-3, 48 h, IFN-γ, L-Trp and compounds 48 h, mean ± SD, read-out: IC50 (Kyn assay), reduction of kynurenine levels
# [3] = molecular target: T1, recombinant full-length human IDO1 (Homo sapiens, UniProt P14902); experiment: Isothermal titration calorimetry (ITC); format: binding; conditions: 25 °C
# T1 construct: The GST-tag of IDO1 was removed to obtain untagged full-length IDO1l using PreScission protease; GST (N, cleaved yes); made in house; own inference
# T1 sequence (P14902 whole entry): as above
# Description: Incubation at 37 °C for 3 h. Representative data for n = 3. c) Time‐course of heme displacement from IDO1 detected by the absorbance at the Soret peak (404 nm) as a function of time. […] All curves were fit using a one‐site model with N = 1 and defined IDO1 concentration. Left plots show baseline corrected data, while right plots show integrated binding isotherms versus iDegs/IDO1 ratio. IDO1 protein (125 µM) was titrated into the stirred sample cell containing iDegs (25 µM, except for iDeg‐8 at 50 µM). Representative data for n = 3, except for iDeg‐9 (n = 2). g)–i) In vivo activity of iDeg‐6. NSG immunodeficient mice were injected with SKOV‐3 cells. Mice were treated with 18 intraperitoneal injections of iDeg‐6 (30 mg kg^−1) or vehicle. The pharmacological treatment was twice daily. Tumor volume was determined weekly by digital caliper. g) SKOV‐3 tumor growth curves in iDeg‐6‐treated mice (n = 12, green lines) or vehicle‐treated mice (n = 13, gray lines). Statistical analysis was performed by two‐way ANOVA: ****p < 0.001. h) Body weight changes during treatment window (mean values ± range). i) Survival data are shown by Kaplan‐Meier survival analysis. Mantel–Haenszel statistical analysis: p < 0.0001).
# ITC was performed using the MicroCal PEAQ-ITC system (Malvern) at 25 °C. Recombinant human full-length IDO1 (rhIDO1) was buffer-exchanged into 100 mM phosphate buffer (50 mM KH₂PO₄ and 50 mM K₂HPO₄, pH 6.57) with 1 mM TECP using a 10 K Amicon® Ultra centrifugal filter (Millipore). The buffer exchange was repeated ten times to ensure complete removal of interfering components. The final protein sample was diluted in the same phosphate buffer prior to titration.125 μM protein in 100 mM phosphate buffer was loaded into the syringe, while 25 μM compound (except for iDeg-8, 50 μM) in 100 mM phosphate buffer was loaded to the cell. All samples were adjusted to 25 °C and degassed before loading. Titrations were performed at 25 °C with one injection of 0.4 µL, followed by 18 injections of 2 µL. Experiments were performed with three biological replicates except for iDeg-9 with two biological replicates. Data were analyzed using the MicroCal PEAQ-ITC Analysis software and were plotted using GraphPad Prism 9.0 (GraphPad, USA).
# [4] = molecular target: T2, recombinant human IDO1 (Homo sapiens, UniProt P14902); experiment: IDO1 enzymatic assay in vitro; format: biochemical; conditions: for inhibition at 14 µM / IC50 / IDO1 activity IC50 [µM] (in vitro assay): pre-incubation 37 °C 45 min; for inhibition at 14 µM: mean ± SD; for IC50 / IDO1 activity IC50 [µM] (in vitro assay): determined if inhibition at 14 µM higher than 50%; for in vitro IDO1 inhibition (in words): up to 14 µM, incubated with IDO1 for 45 min
# T2 construct: The GST-tag of IDO1 was removed to obtain untagged full-length IDO1l using PreScission protease; GST (N, cleaved yes); made in house; own inference
# T2 sequence (P14902 whole entry): as above
SMILES,Max. degradation (%) ([1]; 10 nM),Max. degradation (%) ([1]; 100 nM),Dmax at 0.1 µM ([1]; BxPC3 cells) [%],"DC50 ([1]; BxPC3 cells, ND: not detected, read-out: DC50 (half-maximal degradation concentration)) [nM]",IC50 [2] [nM],-TΔS (ITC) [3] [kcal/mol],ΔG (ITC) [3] [kcal/mol],ΔH (ITC) [3] [kcal/mol],Kd ([3]; one-site model) [nM],inhibition at 14 µM [4] [%],IC50 [4] [µM],IDO1 activity IC50 [µM] (in vitro assay) [4],"Degradation Efficiency (%) ([1]; 100 nM, BxPC3 cells, heatmap Fig. 3d)",fold increase in potency compared to iDeg-2 in Kyn assay [2],in vitro IDO1 inhibition (in words) [4]
"C#Cc1ccc(NC(=O)OC[C@]23CN(S(=O)(=O)c4ccc(C(C)(C)C)cc4CC)C[C@H]2C[C@H]2C[C@@H]3C2(C)C)cc1 [99 (iDeg-8), ((3aS,4R,6R,7aS)-2-((4-(tert-butyl)-2-ethylphenyl)sulfonyl)-5,5-dimethyloctahydro-3aH-4,6-methanoisoindol-3a-yl)methyl (4-ethynylphenyl)carbamate]",66 ± 4 (3) %,75 ± 7 (3) %,75,3,9.7 ± 2,3.5,-8.2,-11.8 ± 0.7,940,61 ± 1,4 ± 3.3,,,,
"CC(C)(C)c1ccc(S(=O)(=O)N2C[C@H]3C[C@H]4C[C@H](C4(C)C)[C@@]3(COC(=O)Nc3ccc(I)cc3)C2)c(I)c1 [compound 84, ((3aS,4R,6R,7aS)-2-((4-(tert-butyl)-2-iodophenyl)sulfonyl)-5,5-dimethyloctahydro-3aH-4,6-methanoisoindol-3a-yl)methyl (4-iodophenyl)carbamate]",inactive,55 ± 5 (3) %,,,42 ± 15,,,,,16 ± 4,,– (Inactive: >75% Kyn level observed up to a concentration of 14 µM and no IC50 value obtained),,,
"Cc1cc(C(C)(C)C(=O)O)ccc1S(=O)(=O)N1C[C@H]2C[C@H]3C[C@H](C3(C)C)[C@@]2(COC(=O)Nc2ccc(I)cc2)C1 [compound 97, 2-(4-(((3aS,4R,6R,7aS)-3a-((((4-iodophenyl)carbamoyl)oxy)methyl)-5,5-dimethyloctahydro-2H-4,6-methanoisoindol-2-yl)sulfonyl)-3-methylphenyl)-2-methylpropanoic acid]",11 ± 24 (3) %,18 ± 19 (3) %,,,5 ± 1,,,,,65 ± 4,0.11 ± 0.02,,,,
"C#Cc1ccc(NC(=O)OC[C@]23CN(S(=O)(=O)c4ccc(C(C)(C)C)cc4)C[C@H]2C[C@H]2C[C@@H]3C2(C)C)cc1 [43 (iDeg-3), ((3aS,4R,6R,7aS)-2-((4-(tert-butyl)phenyl)sulfonyl)-5,5-dimethyloctahydro-3aH-4,6-methanoisoindol-3a-yl)methyl (4-ethynylphenyl)carbamate]",29 ± 16 (5) %,62 ± 10 (5) %,,,46 ± 21,,,,,< 25,,– (Inactive: >75% Kyn level observed up to a concentration of 14 µM and no IC50 value obtained),62,three‐fold,
"COc1cc(C(C)(C)C(=O)O)ccc1S(=O)(=O)N1C[C@H]2C[C@H]3C[C@H](C3(C)C)[C@@]2(COC(=O)Nc2ccc(I)cc2)C1 [compound 95, 2-(4-(((3aS,4R,6R,7aS)-3a-((((4-iodophenyl)carbamoyl)oxy)methyl)-5,5-dimethyloctahydro-2H-4,6-methanoisoindol-2-yl)sulfonyl)-3-methoxyphenyl)-2-methylpropanoic acid]",Inactive (5),Inactive (5),,,80 ± 22,,,,,57 ± 3,0.67 ± 0.1,,,,
"Cc1cc(C(C)(C)C)ccc1S(=O)(=O)N1C[C@H]2C[C@H]3C[C@H](C3(C)C)[C@@]2(COC(=O)Nc2ccc(I)cc2)C1 [79 (iDeg-4), ((3aS,4R,6R,7aS)-2-((4-(tert-butyl)-2-methylphenyl)sulfonyl)-5,5-dimethyloctahydro-3aH-4,6-methanoisoindol-3a-yl)methyl (4-iodophenyl)carbamate]",31 ± 6 (3) %,65 ± 10 (14) %,,,25 ± 5,,,,,25 ± 5,> 14,,,,weak inhibitors
"CC(C)(C(=O)O)c1ccc(S(=O)(=O)N2C[C@H]3C[C@H]4C[C@H](C4(C)C)[C@@]3(COC(=O)Nc3ccc(I)cc3)C2)c(Cl)c1 [compound 96, 2-(3-chloro-4-(((3aS,4R,6R,7aS)-3a-((((4-iodophenyl)carbamoyl)oxy)methyl)-5,5-dimethyloctahydro-2H-4,6-methanoisoindol-2-yl)sulfonyl)phenyl)-2-methylpropanoic acid]",15 ± 2 (3) %,20 ± 12 (3) %,,,14 ± 3,,,,,62 ± 1,0.19 ± 0.1,,,,
"CC(C)(CC(=O)O)c1ccc(S(=O)(=O)N2C[C@H]3C[C@H]4C[C@H](C4(C)C)[C@@]3(COC(=O)Nc3ccc(I)cc3)C2)cc1 [compound 91, 3-(4-(((3aS,4R,6R,7aS)-3a-((((4-iodophenyl)carbamoyl)oxy)methyl)-5,5-dimethyloctahydro-2H-4,6-methanoisoindol-2-yl)sulfonyl)phenyl)-3-methylbutanoic acid]",27 ± 5 (3) %,36 ± 2 (3) %,36 to 54,,32 ± 7,,,,,59 ± 2,1.9 ± 0.5,,,,
"CC(C)(C)c1ccc(S(=O)(=O)N2C[C@H]3C[C@H]4C[C@H](C4(C)C)[C@@]3(COC(=O)Nc3ccc(I)cc3)C2)c(C2CC2)c1 [compound 81, ((3aS,4R,6R,7aS)-2-((4-(tert-butyl)-2-cyclopropylphenyl)sulfonyl)-5,5-dimethyloctahydro-3aH-4,6-methanoisoindol-3a-yl)methyl (4-iodophenyl)carbamate]",31 ± 18 (3) %,55 ± 4 (3) %,,,19 ± 6,,,,,39 ± 1,> 14,,,,weak inhibitors
"CCc1cc(C(C)(C)C)ccc1S(=O)(=O)N1C[C@H]2C[C@H]3C[C@H](C3(C)C)[C@@]2(COC(=O)Nc2ccc(I)cc2)C1 [compound 80, ((3aS,4R,6R,7aS)-2-((4-(tert-butyl)-2-ethylphenyl)sulfonyl)-5,5-dimethyloctahydro-3aH-4,6-methanoisoindol-3a-yl)methyl (4-iodophenyl)carbamate]",25 ± 10 (3) %,56 ± 4 (3) %,,,13 ± 3,,,,,35 ± 8,> 14,,,,weak inhibitors
"C#Cc1ccc(NC(=O)OC[C@]23CN(S(=O)(=O)c4ccc(C(C)(C)C)cc4C4CC4)C[C@H]2C[C@H]2C[C@@H]3C2(C)C)cc1 [compound 100, ((3aS,4R,6R,7aS)-2-((4-(tert-butyl)-2-cyclopropylphenyl)sulfonyl)-5,5-dimethyloctahydro-3aH-4,6-methanoisoindol-3a-yl)methyl (4-ethynylphenyl)carbamate]",61 ± 2 (3) %,71 ± 11 (3) %,,,10 ± 4,,,,,39 ± 7,> 14,,,,
